Assay results from ChEMBL document CHEMBL1201862, “PubChem BioAssay data set” (2004).
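Protocol summary: plate cells (96-well), add compound at 5 concentrations, incubate 48 h, interpolate endpoints linearly. The concentration for 50% growth inhibition is given as GI50.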 Activity calls are given as the source filed them. No stated cut-off is given here; in the data, active = GI50 up to about 1.1 µM and inactive = higher.

Columns and labels:
Experiment in all cases: growth of human tumour cells (NCI), 48 h
A549 = test system: A549
MOLT-4 = test system: MOLT-4
RXF 393 = test system: RXF 393
M14 = test system: M14
HCT-116 = test system: HCT-116
A498 = test system: A498
CAKI-1 = test system: CAKI-1
HL-60 = test system: HL-60
EKVX = test system: EKVX
SNB-75 = test system: SNB-75
TK-10 = test system: TK-10
K562 = test system: K562
HT-29 = test system: HT-29
UACC-62 = test system: UACC-62
SF-295 = test system: SF-295
IGROV-1 = test system: IGROV-1
SNB-19 = test system: SNB-19
COLO 205 = test system: COLO 205
KM12 = test system: KM12
CCRF-CEM = test system: CCRF-CEM

| Structure (SMILES) | GI50 (A549) | GI50 (MOLT-4) | GI50 (RXF 393) | GI50 (M14) | GI50 (HCT-116) | GI50 (A498) | GI50 (CAKI-1) | GI50 (HL-60) | GI50 (EKVX) | GI50 (SNB-75) | GI50 (TK-10) | GI50 (K562) | GI50 (HT-29) | GI50 (UACC-62) | GI50 (SF-295) | GI50 (IGROV-1) | GI50 (SNB-19) | GI50 (COLO 205) | GI50 (KM12) | GI50 (CCRF-CEM) |
| --- | --- | --- | --- | --- | --- | --- | --- | --- | --- | --- | --- | --- | --- | --- | --- | --- | --- | --- | --- | --- |
| COc1nc(C#CCC(C)O)nc(OC)n1 (centres undefined) | 23.3 µM (inactive) | 33.2 µM (inactive) | 7.38 µM (inactive) | 16.9 µM (inactive) | 14.9 µM (inactive) | 30.5 µM (inactive) | 17.6 µM (inactive) | 24.3 µM (inactive) | 20 µM (inactive) | 27 µM (inactive) | 24.2 µM (inactive) | 38.2 µM (inactive) | 31.3 µM (inactive) | 15.1 µM (inactive) | 30.6 µM (inactive) | 15.7 µM (inactive) | > 100 µM (inactive) | 25.4 µM (inactive) | 24.5 µM (inactive) | – |
| Cc1cn(C2CC(N)C(C(=O)NCC(=O)O)O2)c(=O)[nH]c1=O (centres undefined) | – | > 100 µM (inactive) | > 100 µM (inactive) | > 100 µM (inactive) | > 100 µM (inactive) | 50.6 µM (inactive) | > 100 µM (inactive) | > 100 µM (inactive) | > 100 µM (inactive) | > 100 µM (inactive) | > 100 µM (inactive) | 95.3 µM (inactive) | > 100 µM (inactive) | > 100 µM (inactive) | – | > 100 µM (inactive) | > 100 µM (inactive) | > 100 µM (inactive) | > 100 µM (inactive) | > 100 µM (inactive) |
| CC1=C2C(O)C(C(C)C(=O)NC(C)C)CCC2(C)C=CC1=O (centres undefined) | > 100 µM (inactive) | > 100 µM (inactive) | > 100 µM (inactive) | – | > 100 µM (inactive) | > 100 µM (inactive) | > 100 µM (inactive) | > 100 µM (inactive) | > 100 µM (inactive) | > 100 µM (inactive) | – | > 100 µM (inactive) | > 100 µM (inactive) | > 100 µM (inactive) | > 100 µM (inactive) | > 100 µM (inactive) | > 100 µM (inactive) | > 100 µM (inactive) | > 100 µM (inactive) | > 100 µM (inactive) |
| COC(=O)C(C(=O)C(=O)Nc1nnc(S)[nH]1)c1csc(-n2nc(-c3ccccc3)cc2-c2ccccc2)n1 (centres undefined) | > 100 µM (inactive) | > 100 µM (inactive) | > 100 µM (inactive) | > 100 µM (inactive) | > 100 µM (inactive) | > 100 µM (inactive) | > 100 µM (inactive) | > 100 µM (inactive) | 33.3 µM (inactive) | 3.75 µM (inactive) | > 100 µM (inactive) | > 100 µM (inactive) | 27.5 µM (inactive) | > 100 µM (inactive) | – | > 100 µM (inactive) | > 100 µM (inactive) | > 100 µM (inactive) | > 100 µM (inactive) | > 100 µM (inactive) |
| COC(=O)c1cc(-c2cccn2C)c2c(c1C(=O)OC)c1ccccc1n2C | 31.8 µM (inactive) | 3.13 µM (inactive) | > 100 µM (inactive) | 77.4 µM (inactive) | – | – | – | 37.5 µM (inactive) | – | 71.4 µM (inactive) | > 100 µM (inactive) | 13.5 µM (inactive) | 6.98 µM (inactive) | > 100 µM (inactive) | 41.3 µM (inactive) | > 100 µM (inactive) | > 100 µM (inactive) | 32.9 µM (inactive) | 53.7 µM (inactive) | – |
| CC(=O)OC1CCC2(C)C3CCC4(C)C(c5ccc(=O)oc5)CC5OC54C3CCC2(O)C1 (centres undefined) | 0.495 µM (active) | 0.348 µM (active) | 0.479 µM (active) | – | 0.706 µM (active) | 1.55 µM (inactive) | 0.738 µM (active) | 0.522 µM (active) | 0.887 µM (active) | 1.06 µM (active) | – | 0.979 µM (active) | 2.19 µM (inactive) | 2.69 µM (inactive) | 1.15 µM (inactive) | 2.61 µM (inactive) | 5.18 µM (inactive) | 4.28 µM (inactive) | 3.21 µM (inactive) | 0.631 µM (active) |
| Cc1cc(C)nc(NS(=O)(=O)c2ccc(NNC(=O)c3cccc4c(=O)c5ccccc5[nH]c34)cc2)n1 | > 100 µM (inactive) | 49.8 µM (inactive) | 36 µM (inactive) | > 100 µM (inactive) | 48.9 µM (inactive) | – | > 100 µM (inactive) | 41.2 µM (inactive) | 23.1 µM (inactive) | 19.5 µM (inactive) | > 100 µM (inactive) | 41 µM (inactive) | 66.5 µM (inactive) | 71.6 µM (inactive) | 80.5 µM (inactive) | 36.7 µM (inactive) | 88.5 µM (inactive) | > 100 µM (inactive) | 39.5 µM (inactive) | 35.4 µM (inactive) |
| CCN1CCC(O)(C(C(=O)O)c2ccccc2)CC1 (centres undefined) | > 100 µM (inactive) | – | > 100 µM (inactive) | > 100 µM (inactive) | – | > 100 µM (inactive) | > 100 µM (inactive) | > 100 µM (inactive) | > 100 µM (inactive) | > 100 µM (inactive) | > 100 µM (inactive) | > 100 µM (inactive) | > 100 µM (inactive) | > 100 µM (inactive) | > 100 µM (inactive) | > 100 µM (inactive) | > 100 µM (inactive) | > 100 µM (inactive) | > 100 µM (inactive) | > 100 µM (inactive) |
